Experimental data taken from article PMC6152318 (Molecules : A Journal of Synthetic Chemistry and Natural …, 2017).

Key:
[1] = target: T1, Human serum albumin (HSA) (Homo sapiens, UniProt P02768); assay: Binding constants by quenching of HSA tryptophan fluorescence
T1 construct: Fatty acid free HSA and warfarin sodium were purchased from Sigma-Aldrich; purchased Sigma-Aldrich (St. Louis, MO, USA)
Method: In all experiments, the final co-solvent concentration was held below 5%. This was done to prevent conformational changes of HSA due to changes in dielectric constant of the solvent.
Steady-state fluorescence was recorded using a thermostated Safas Xenius fluorometer (Safas Monaco, Monaco) with an integrated stirrer. All studies were performed at 25 ± 1 °C using 10 nm excitation and emission slit widths. […] Measurements were performed in duplicate.
A stock solution of a single ligand was gradually added via syringe to a 2 mL of a 6 μM HSA solution placed in a quartz cell. Measurements were conducted at the excitation wavelength of 295 nm and emission was recorded in the 310–400 nm range enabling calculations of corresponding binding constants. […] Binding constants were determined according to Dufour and Dangles. A Scatchard analysis was performed assuming n identical binding sites on HSA. Values for binding constant (K), molar fluorescence intensity of the complex (f), and the stoichiometric coefficient (n) were estimated by fitting the F vs. Lt curves against Equations (1) and (2) using a least-square regression program Scientist (MicroMath, Salt Lake City, UT, USA), where F is fluorescence intensity, [L] the free ligand concentration, [Lt] the total ligand concentration, and c the total albumin concentration. […] In all cases, the inner filter effect was taken into account by using absorption of free ligands at excitation and emission wavelengths (εex and εem, respectively) (Equation (3)), where Fcorr is the fluorescence corrected for the inner filter effect, F0 is the measured fluorescence, ε is the sum of εex and εem, l = 0.65 is the optical path and c is the flavonoid concentration. (1) Fcorr=fcnK[L]/1+K[L] (2) [Lt]=[L](1+ncK/1+K[L]) (3) F0=Fcorr×10^−εlc

[2] = target: Human serum albumin (HSA) IIA binding site (Homo sapiens, UniProt P02768); assay: Flavonoid fluorescence (excitation 450 nm) on HSA pre-saturated with warfarin (simultaneous binding / displacement)
Method: HSA was freshly dissolved in Dulbecco’s phosphate-buffered saline pH 7.4 (137 mM sodium chloride, 2.7 mM potassium chloride, 8.1 mM disodium hydrogen phosphate, 1.47 mM potassium dihydrogen phosphate) immediately before measurements. […]. In all experiments, the final co-solvent concentration was held below 5%. This was done to prevent conformational changes of HSA due to changes in dielectric constant of the solvent.
Steady-state fluorescence was recorded using a thermostated Safas Xenius fluorometer (Safas Monaco, Monaco) with an integrated stirrer. All studies were performed at 25 ± 1 °C using 10 nm excitation and emission slit widths. […] Higher concentrations of HSA and ligands were not used due to poor solubility of ligands and high influence of ligand absorption. Measurements were performed in duplicate.

[3] = Flavonoid fluorescence in buffer solution without HSA
[4] = HSA 0-92% saturated with warfarin

Sequence of Human serum albumin (HSA) IIA binding site (P02768 25-609): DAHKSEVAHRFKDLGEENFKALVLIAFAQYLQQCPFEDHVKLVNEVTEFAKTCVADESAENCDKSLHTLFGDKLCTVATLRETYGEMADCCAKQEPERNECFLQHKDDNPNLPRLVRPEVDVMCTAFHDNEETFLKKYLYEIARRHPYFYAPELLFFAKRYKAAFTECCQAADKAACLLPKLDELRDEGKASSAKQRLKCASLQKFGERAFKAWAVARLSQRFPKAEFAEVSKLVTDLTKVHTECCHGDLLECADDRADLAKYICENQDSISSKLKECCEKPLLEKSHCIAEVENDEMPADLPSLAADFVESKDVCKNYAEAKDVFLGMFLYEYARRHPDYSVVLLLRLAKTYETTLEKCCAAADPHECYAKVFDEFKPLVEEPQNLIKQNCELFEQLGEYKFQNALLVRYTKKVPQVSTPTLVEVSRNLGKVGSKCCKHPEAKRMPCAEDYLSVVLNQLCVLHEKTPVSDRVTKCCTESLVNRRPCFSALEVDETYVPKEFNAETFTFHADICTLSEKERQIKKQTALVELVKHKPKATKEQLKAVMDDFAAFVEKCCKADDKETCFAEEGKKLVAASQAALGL
T1 sequence (P02768 25-609): as above

Structure (SMILES): O=c1cc(-c2ccc(O)c(O)c2)oc2cc(O)cc(O)c12 [Luteolin]
- Kd [1]: 8.2 µM
- Effect of warfarin on flavonoid Fmax (maximum fluorescence) [2, 4]: no noticeable change
- Effect of warfarin on flavonoid cmax (concentration needed to achieve Fmax) [2, 4]: no noticeable change
- Absolute fluorescence intensity ([2]; flavonoid 2,00 uM, 0% occupied HSA): 3,5310
- Absolute fluorescence intensity ([2]; flavonoid 2,00 uM, 22% occupied HSA): 3,0516
- Absolute fluorescence intensity ([2]; flavonoid 2,00 uM, 38% occupied HSA): 3,2663
- Absolute fluorescence intensity ([2]; flavonoid 2,00 uM, 63% occupied HSA): 2,9688
- Absolute fluorescence intensity ([2]; flavonoid 2,00 uM, 92% occupied HSA): 3,0838
- Absolute fluorescence intensity ([2]; flavonoid 4,00 uM, 0% occupied HSA): 5,6541
- Absolute fluorescence intensity ([2]; flavonoid 4,00 uM, 22% occupied HSA): 5,0287
- Absolute fluorescence intensity ([2]; flavonoid 4,00 uM, 38% occupied HSA): 5,0961
- Absolute fluorescence intensity ([2]; flavonoid 4,00 uM, 63% occupied HSA): 4,7527
- Absolute fluorescence intensity ([2]; flavonoid 4,00 uM, 92% occupied HSA): 4,7445
- Absolute fluorescence intensity ([2]; flavonoid 6,00 uM, 0% occupied HSA): 7,6599
- Absolute fluorescence intensity ([2]; flavonoid 6,00 uM, 22% occupied HSA): 6,8528
- Absolute fluorescence intensity ([2]; flavonoid 6,00 uM, 38% occupied HSA): 6,8106
- Absolute fluorescence intensity ([2]; flavonoid 6,00 uM, 63% occupied HSA): 6,3873
- Absolute fluorescence intensity ([2]; flavonoid 6,00 uM, 92% occupied HSA): 6,5159
- Absolute fluorescence intensity ([2]; flavonoid 7,99 uM, 0% occupied HSA): 9,4059
- Absolute fluorescence intensity ([2]; flavonoid 7,99 uM, 22% occupied HSA): 8,8217
- Absolute fluorescence intensity ([2]; flavonoid 7,99 uM, 38% occupied HSA): 8,5002
- Absolute fluorescence intensity ([2]; flavonoid 7,99 uM, 63% occupied HSA): 7,8443
- Absolute fluorescence intensity ([2]; flavonoid 7,99 uM, 92% occupied HSA): 8,1746
- Absolute fluorescence intensity ([2]; flavonoid 11,98 uM, 0% occupied HSA): 11,5397
- Absolute fluorescence intensity ([2]; flavonoid 11,98 uM, 22% occupied HSA): 11,3861
- Absolute fluorescence intensity ([2]; flavonoid 11,98 uM, 38% occupied HSA): 11,3711
- Absolute fluorescence intensity ([2]; flavonoid 11,98 uM, 63% occupied HSA): 10,9648
- Absolute fluorescence intensity ([2]; flavonoid 11,98 uM, 92% occupied HSA): 10,4774
- Absolute fluorescence intensity ([2]; flavonoid 15,97 uM, 0% occupied HSA): 14,0865
- Absolute fluorescence intensity ([2]; flavonoid 15,97 uM, 22% occupied HSA): 14,1260
- Absolute fluorescence intensity ([2]; flavonoid 15,97 uM, 38% occupied HSA): 13,9507
- Absolute fluorescence intensity ([2]; flavonoid 15,97 uM, 63% occupied HSA): 13,0693
- Absolute fluorescence intensity ([2]; flavonoid 15,97 uM, 92% occupied HSA): 12,9194
- Absolute fluorescence intensity ([2]; flavonoid 23,93 uM, 0% occupied HSA): 17,9442
- Absolute fluorescence intensity ([2]; flavonoid 23,93 uM, 22% occupied HSA): 17,8085
- Absolute fluorescence intensity ([2]; flavonoid 23,93 uM, 38% occupied HSA): 17,8530
- Absolute fluorescence intensity ([2]; flavonoid 23,93 uM, 63% occupied HSA): 17,0150
- Absolute fluorescence intensity ([2]; flavonoid 23,93 uM, 92% occupied HSA): 16,3518
- Absolute fluorescence intensity ([2]; flavonoid 31,87 uM, 0% occupied HSA): 20,8667
- Absolute fluorescence intensity ([2]; flavonoid 31,87 uM, 22% occupied HSA): 20,4964
- Absolute fluorescence intensity ([2]; flavonoid 31,87 uM, 38% occupied HSA): 20,5131
- Absolute fluorescence intensity ([2]; flavonoid 31,87 uM, 63% occupied HSA): 19,6701
- Absolute fluorescence intensity ([2]; flavonoid 31,87 uM, 92% occupied HSA): 19,1278
- Absolute fluorescence intensity ([2]; flavonoid 39,80 uM, 0% occupied HSA): 22,9301
- Absolute fluorescence intensity ([2]; flavonoid 39,80 uM, 22% occupied HSA): 22,5924
- Absolute fluorescence intensity ([2]; flavonoid 39,80 uM, 38% occupied HSA): 22,2082
- Absolute fluorescence intensity ([2]; flavonoid 39,80 uM, 63% occupied HSA): 21,6524
- Absolute fluorescence intensity ([2]; flavonoid 39,80 uM, 92% occupied HSA): 20,8642
- Absolute fluorescence intensity ([2]; flavonoid 47,71 uM, 0% occupied HSA): 24,5206
- Absolute fluorescence intensity ([2]; flavonoid 47,71 uM, 22% occupied HSA): 23,8063
- Absolute fluorescence intensity ([2]; flavonoid 47,71 uM, 38% occupied HSA): 23,5737
- Absolute fluorescence intensity ([2]; flavonoid 47,71 uM, 63% occupied HSA): 23,1678
- Absolute fluorescence intensity ([2]; flavonoid 47,71 uM, 92% occupied HSA): 22,5713
- Absolute fluorescence intensity ([2]; flavonoid 63,49 uM, 0% occupied HSA): 26,4505
- Absolute fluorescence intensity ([2]; flavonoid 63,49 uM, 22% occupied HSA): 25,9034
- Absolute fluorescence intensity ([2]; flavonoid 63,49 uM, 38% occupied HSA): 25,4318
- Absolute fluorescence intensity ([2]; flavonoid 63,49 uM, 63% occupied HSA): 24,8572
- Absolute fluorescence intensity ([2]; flavonoid 63,49 uM, 92% occupied HSA): 24,6423
- Absolute fluorescence intensity ([2]; flavonoid 79,21 uM, 0% occupied HSA): 26,9488
- Absolute fluorescence intensity ([2]; flavonoid 79,21 uM, 22% occupied HSA): 26,5002
- Absolute fluorescence intensity ([2]; flavonoid 79,21 uM, 38% occupied HSA): 26,5136
- Absolute fluorescence intensity ([2]; flavonoid 79,21 uM, 63% occupied HSA): 25,8191
- Absolute fluorescence intensity ([2]; flavonoid 79,21 uM, 92% occupied HSA): 25,3909
- Absolute fluorescence intensity ([2]; flavonoid 98,77 uM, 0% occupied HSA): 27,2939
- Absolute fluorescence intensity ([2]; flavonoid 98,77 uM, 22% occupied HSA): 27,2804
- Absolute fluorescence intensity ([2]; flavonoid 98,77 uM, 38% occupied HSA): 26,9116
- Absolute fluorescence intensity ([2]; flavonoid 98,77 uM, 63% occupied HSA): 26,1311
- Absolute fluorescence intensity ([2]; flavonoid 98,77 uM, 92% occupied HSA): 26,2198
- Absolute fluorescence intensity ([2]; flavonoid 118,23 uM, 0% occupied HSA): 27,1078
- Absolute fluorescence intensity ([2]; flavonoid 118,23 uM, 22% occupied HSA): 27,1338
- Absolute fluorescence intensity ([2]; flavonoid 118,23 uM, 38% occupied HSA): 26,9198
- Absolute fluorescence intensity ([2]; flavonoid 118,23 uM, 63% occupied HSA): 26,3501
- Absolute fluorescence intensity ([2]; flavonoid 118,23 uM, 92% occupied HSA): 26,3929
- Absolute fluorescence intensity ([2]; flavonoid 137,59 uM, 0% occupied HSA): 26,3217
- Absolute fluorescence intensity ([2]; flavonoid 137,59 uM, 22% occupied HSA): 26,7053
- Absolute fluorescence intensity ([2]; flavonoid 137,59 uM, 38% occupied HSA): 26,6416
- Absolute fluorescence intensity ([2]; flavonoid 137,59 uM, 63% occupied HSA): 26,1054
- Absolute fluorescence intensity ([2]; flavonoid 137,59 uM, 92% occupied HSA): 26,3918
- Absolute fluorescence intensity ([2]; flavonoid 156,86 uM, 0% occupied HSA): 25,8093
- Absolute fluorescence intensity ([2]; flavonoid 156,86 uM, 22% occupied HSA): 26,0626
- Absolute fluorescence intensity ([2]; flavonoid 156,86 uM, 38% occupied HSA): 26,1509
- Absolute fluorescence intensity ([2]; flavonoid 156,86 uM, 63% occupied HSA): 25,5239
- Absolute fluorescence intensity ([2]; flavonoid 156,86 uM, 92% occupied HSA): 25,7773
- Absolute fluorescence intensity ([3]; flavonoid 2,00 uM): 0,5984
- Absolute fluorescence intensity ([3]; flavonoid 4,00 uM): 0,7341
- Absolute fluorescence intensity ([3]; flavonoid 7,99 uM): 0,8094
- Absolute fluorescence intensity ([3]; flavonoid 15,97 uM): 0,8481
- Absolute fluorescence intensity ([3]; flavonoid 31,87 uM): 1,0538
- Absolute fluorescence intensity ([3]; flavonoid 47,71 uM): 1,3400
- Absolute fluorescence intensity ([3]; flavonoid 63,49 uM): 1,5045
- Absolute fluorescence intensity ([3]; flavonoid 79,21 uM): 1,7483
- Absolute fluorescence intensity ([3]; flavonoid 118,23 uM): 2,2774
- Absolute fluorescence intensity ([3]; flavonoid 156,86 uM): 2,8851
